Columns and labels:
[1] = Bioavailability after administration by inhalation as powder inhalant; settings: in vivo, inhaled or intranasal; administered by inhalation as powder inhalant; based on the fine content of the formulation (FPD, USP 24 Suppl. 2000)
[2] = conventional formulations; cited from earlier work

bioavailability [1]: ~60%
Structure (SMILES): NCCCC[C@H](NC(=O)[C@@H](Cc1cc(Br)c(O)c(Br)c1)NC(=O)N1CCC(N2Cc3ccccc3NC2=O)CC1)C(=O)N1CCN(c2ccncc2)CC1 [A, 1-[N^2-[3,5-dibromo-N-[[4-(3,4-dihydro-2(1H)-oxoquinazolin-3-yl)-1-piperidinyl]carbonyl]-D-tyrosyl]-L-lysyl]-4-(4-pyridinyl)-piperazine]
oral bioavailability [2]: very limited
